{"source": "patent US20260327211A1", "about": "“MODULATORS OF A POTASSIUM CHANNEL AND OF TRPV1 CHANNEL AND USES THEREOF” (Bsense Bio Therapeutics Ltd., priority 2023, published 2026)", "key": {"hTRPV1": {"system": "hTRPV1", "test": "hTRPV1 dual activity electrophysiology, CHO cells co-expressing hKv7.2/3 and hTRPV1", "assay_type": "cell-based", "details": "rat DRG and dual CHO"}, "[1]": {"system": "Salmonella typhimurium (TA98, TA100, TA1535, TA1537) and Escherichia coli WP2uvrA (pKM101)", "test": "Mini-Ames assay", "assay_type": "cell-based", "details": "5 strains, with and without S9", "method": "The Mini-Ames assay was performed according to the regulatory guidelines. In brief, 5 strains were selected for testing: Salmonella typhimurium (TA98, TA100, TA1535, TA1537) and Escherichia coli WP2uvrA (pKM101). A standard six-well culture plate with top agar containing 0.6% (w/v) agar and 0.5% (w/v) sodium chloride was supplemented with 0.5 mM D-biotin and 0.5 mM L-histidine for Salmonella typhimurium strains or 0.5 mM D-biotin and 0.5 mM L-tryptophan for Escherichia coli WP2uvrA (pKM101). […] Average number of revertants for each dose group condition was compared to negative control, and cytotoxicity and precipitates were recorded."}, "Nav1.5": {"target": "T1, Nav1.5 (Homo sapiens, UniProt Q14524)", "T1 construct": "Eurofins DiscoverX functional panel cells", "T1 sequence (Q14524 whole entry)": "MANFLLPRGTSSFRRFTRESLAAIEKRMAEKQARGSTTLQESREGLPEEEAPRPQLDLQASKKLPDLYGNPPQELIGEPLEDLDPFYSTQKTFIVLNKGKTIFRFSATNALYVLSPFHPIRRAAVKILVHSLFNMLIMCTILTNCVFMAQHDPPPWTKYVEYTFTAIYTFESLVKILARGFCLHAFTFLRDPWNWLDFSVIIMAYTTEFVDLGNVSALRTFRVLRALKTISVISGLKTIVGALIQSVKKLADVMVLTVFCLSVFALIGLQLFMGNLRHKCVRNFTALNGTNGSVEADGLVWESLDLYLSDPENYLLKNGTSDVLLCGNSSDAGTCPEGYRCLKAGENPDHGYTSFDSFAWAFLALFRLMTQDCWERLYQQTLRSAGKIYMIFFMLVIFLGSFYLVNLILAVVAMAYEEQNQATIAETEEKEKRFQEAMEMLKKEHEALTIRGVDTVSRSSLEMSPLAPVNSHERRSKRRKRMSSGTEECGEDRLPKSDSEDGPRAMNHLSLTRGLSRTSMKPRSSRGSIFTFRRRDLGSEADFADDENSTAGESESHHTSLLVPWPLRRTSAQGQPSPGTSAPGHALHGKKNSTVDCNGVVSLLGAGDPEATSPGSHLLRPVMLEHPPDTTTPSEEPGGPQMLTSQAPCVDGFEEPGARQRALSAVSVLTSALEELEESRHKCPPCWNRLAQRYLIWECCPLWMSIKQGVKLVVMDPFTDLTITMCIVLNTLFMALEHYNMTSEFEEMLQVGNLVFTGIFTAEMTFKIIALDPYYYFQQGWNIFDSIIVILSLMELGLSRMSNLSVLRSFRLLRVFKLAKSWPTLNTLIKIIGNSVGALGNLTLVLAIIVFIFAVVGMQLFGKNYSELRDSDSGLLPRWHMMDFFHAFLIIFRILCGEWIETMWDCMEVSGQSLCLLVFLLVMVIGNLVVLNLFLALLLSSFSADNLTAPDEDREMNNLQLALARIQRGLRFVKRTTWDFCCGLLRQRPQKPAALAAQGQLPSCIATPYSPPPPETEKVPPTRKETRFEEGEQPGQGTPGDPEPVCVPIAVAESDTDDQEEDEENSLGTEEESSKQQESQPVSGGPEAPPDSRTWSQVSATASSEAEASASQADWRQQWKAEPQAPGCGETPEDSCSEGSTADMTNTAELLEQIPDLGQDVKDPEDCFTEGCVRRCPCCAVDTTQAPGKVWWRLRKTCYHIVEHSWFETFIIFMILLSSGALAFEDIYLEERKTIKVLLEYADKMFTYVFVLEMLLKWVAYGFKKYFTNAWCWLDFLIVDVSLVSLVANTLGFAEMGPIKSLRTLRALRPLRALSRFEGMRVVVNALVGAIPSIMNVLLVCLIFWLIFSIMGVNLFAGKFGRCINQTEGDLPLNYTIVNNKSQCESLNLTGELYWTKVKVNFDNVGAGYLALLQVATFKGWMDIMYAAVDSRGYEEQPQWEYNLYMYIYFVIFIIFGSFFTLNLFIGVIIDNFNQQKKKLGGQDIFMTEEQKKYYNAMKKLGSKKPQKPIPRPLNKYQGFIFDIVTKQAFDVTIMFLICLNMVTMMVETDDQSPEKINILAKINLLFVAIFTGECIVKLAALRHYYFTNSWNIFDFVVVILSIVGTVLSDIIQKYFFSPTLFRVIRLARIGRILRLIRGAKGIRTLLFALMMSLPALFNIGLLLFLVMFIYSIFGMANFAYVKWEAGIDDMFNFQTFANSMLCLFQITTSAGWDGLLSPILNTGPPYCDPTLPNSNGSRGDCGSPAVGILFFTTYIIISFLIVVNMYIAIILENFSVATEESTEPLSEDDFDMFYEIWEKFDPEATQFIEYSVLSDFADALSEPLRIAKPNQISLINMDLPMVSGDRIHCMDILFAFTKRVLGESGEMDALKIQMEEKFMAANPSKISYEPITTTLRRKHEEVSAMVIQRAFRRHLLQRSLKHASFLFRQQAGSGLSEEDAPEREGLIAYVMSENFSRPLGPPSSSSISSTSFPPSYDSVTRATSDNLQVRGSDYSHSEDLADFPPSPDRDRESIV", "test": "Functional selectivity panel, Nav1.5", "assay_type": "biochemical", "details": "up to 10 micromolar", "method": "A broad panel of 78 recombinant targets was tested for pharmacologic activity in vitro through a variety of functional assays (Eurofins DiscoverX, USA), as part of the National Institute of Neurological Disorders and Stroke (NINDS) Preclinical Screening Platform for Pain (PSPP) program. The biological targets for the in vitro profiling have been selected based on avoiding opioid receptor stimulation and targets known to be associated with adverse events or targeted by drugs of abuse. […] For each test, a reference compound was evaluated at the target of interest as a positive control."}}}
{"smiles": "O=C(Cc1nccc(-n2cc(Cl)c3cc(Cl)cc(Cl)c32)n1)NC1COCC1O", "note": "(stereo not shown) [Compound 760]", "values": [{"measurement": "IC50", "setting": "hTRPV1", "result": "0.1 to 0.23", "unit": "nM"}, {"measurement": "Cytotoxic effect in Ames strains", "setting": "[1]", "result": "No significant cytotoxic effect"}, {"measurement": "Reversion rates", "setting": "[1]", "result": "did not induce substantial dose-dependent increases in reversion rates"}, {"measurement": "Effect on Nav1.5", "setting": "Nav1.5", "result": "no effect"}]}
